{
  "source": "patent US8580793B2",
  "about": "“Use of kinase inhibitor for the treatment of thymoma” (Nerviano Medical Services S.r.l., priority 2009, dated 2013)",
  "test_system": "thymic carcinoma",
  "assay": "Phase I clinical trial, objective tumor response in thymic carcinoma patients (RECIST)",
  "assay_type": "in vivo, human",
  "conditions": "150 mg daily; for decrease in the sum of target lesions compared to baseline: patient; for tumor response as per RECIST criteria: thymic carcinoma patient, 4 days on/3 days off for 3 weeks in 4-week cycle",
  "from_the_text": "An objective tumor response was obtained in a patient, first diagnosed with thymic carcinoma in May 2002 and having had their third progression of disease with metastases to lung in July 2007, entered the phase I clinical trial in September 2007. […] The patient, prior to be treated in the clinical trial, received other treatments for their thymic carcinoma, as follows: from January 2005 to June 2005: Adriamycin®, Cytoxan®, Cisplatin; from February 2006 to May 2006: Ifosfamide; from October 2006 to June 2007: Taxol®, Carboplatin; from June 2007 to July 2007: Adriamycin®, Cytoxan®, Vincristine. The patient had also surgery in May 2002 and radiotherapy in July 2002 and July 2006.\nAnother objective tumor response was obtained in a patient, first diagnosed with thymic carcinoma in May 2006, becoming metastatic to lung, bones and peritoneum in October 2007. The patient started treatment in the phase I clinical trial in December 2008. […] The patient, prior to be treated in the clinical trial, received one line of chemotherapy (cisplatin/gemcitabine) from November 2007 to March 2008; they had surgery in May 2006 and radiotherapy in September 2006.",
  "data": [
    {"smiles": "CNC(=O)c1nn(C)c2c1C(C)(C)Cc1cnc(Nc3ccc(N4CCN(C)CC4)cc3)nc1-2", "note": "[compound of formula (I), 8-[4-(4-methyl-piperazin-1-yl)-phenylamino]-1,4,4-trimethyl-4,5-dihydro-1H-pyrazolo[4,3-h]quinazoline-3-carboxylic acid methylamide]", "values": [
      {"measurement": "decrease in the sum of target lesions compared to baseline", "setting": "PR confirmed one month later", "result": 40, "unit": "%"},
      {"measurement": "decrease in the sum of target lesions compared to baseline", "setting": "after 6 cycles", "result": 30, "unit": "%"},
      {"measurement": "decrease in the sum of target lesions compared to baseline", "setting": "after 10 cycles", "result": 31.2, "unit": "%"},
      {"measurement": "decrease in the sum of target lesions compared to baseline", "setting": "documented until cycle 13", "result": 37.6, "unit": "%"},
      {"measurement": "tumor response as per RECIST criteria", "setting": "after 6 cycles", "result": "partial tumor response (PR)"},
      {"measurement": "tumor response as per RECIST criteria", "setting": "after 10 cycles", "result": "partial tumor response (PR)"}
    ]}
  ]
}
